Source: ChEMBL document CHEMBL1201862, “PubChem BioAssay data set” (2004)
Where a name gives a salt, the structure may show the parent alone. The source made the active and inactive calls.

How the values were obtained:
Mu-type opioid receptor = Mu-type opioid receptor (Homo sapiens, UniProt P35372); type: functional, cell-based;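 further: U2OS cells with beta-arrestin recruitment to OPRM1 by beta-gal complementation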
[1] = biological target: 5-hydroxytryptamine receptor 2A (Mus musculus, UniProt P35363); type: functional, cell-based;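 further: CHO-K1 cells with tagged receptor and beta-arrestin; agonist potency measured as compound-induced activation of the receptor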
Chain of 5-hydroxytryptamine receptor 2A (P35363 whole entry): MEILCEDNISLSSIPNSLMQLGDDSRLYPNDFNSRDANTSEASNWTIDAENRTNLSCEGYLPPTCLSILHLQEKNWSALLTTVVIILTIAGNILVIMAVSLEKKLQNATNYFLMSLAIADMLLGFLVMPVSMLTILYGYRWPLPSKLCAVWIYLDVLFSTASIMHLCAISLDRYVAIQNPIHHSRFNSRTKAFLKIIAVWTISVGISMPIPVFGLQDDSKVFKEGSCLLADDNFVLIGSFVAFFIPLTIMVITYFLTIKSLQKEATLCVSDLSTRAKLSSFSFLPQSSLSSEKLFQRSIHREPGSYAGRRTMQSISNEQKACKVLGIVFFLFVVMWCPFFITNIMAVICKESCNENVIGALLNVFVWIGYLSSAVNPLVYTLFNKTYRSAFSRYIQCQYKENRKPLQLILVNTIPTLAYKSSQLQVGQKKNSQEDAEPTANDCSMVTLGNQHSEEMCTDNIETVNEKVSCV

[2] = biological target: T1, DNA repair protein RAD52 homolog (Homo sapiens, UniProt P43351); type: functional, biochemical
T1 sequence (P43351 whole entry): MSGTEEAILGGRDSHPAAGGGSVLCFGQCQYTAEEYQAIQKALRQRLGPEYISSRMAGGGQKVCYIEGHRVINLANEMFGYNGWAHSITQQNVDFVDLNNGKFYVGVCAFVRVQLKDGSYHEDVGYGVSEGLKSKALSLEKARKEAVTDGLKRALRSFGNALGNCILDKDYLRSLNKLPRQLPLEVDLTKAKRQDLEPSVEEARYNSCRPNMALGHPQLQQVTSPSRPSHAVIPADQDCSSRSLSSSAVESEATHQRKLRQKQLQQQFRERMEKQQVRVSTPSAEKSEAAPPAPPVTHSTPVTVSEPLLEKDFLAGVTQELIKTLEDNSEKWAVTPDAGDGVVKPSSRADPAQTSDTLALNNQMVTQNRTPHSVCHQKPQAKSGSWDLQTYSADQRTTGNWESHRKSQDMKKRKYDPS

Caspase-3 = biological target: T2, Caspase-3 (Homo sapiens, UniProt P42574); type: functional;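 further: Dose-response selectivity test against caspase-3 for candidate inhibitors of sentrin-specific proteases (SENPs)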
T2 sequence (P42574 whole entry): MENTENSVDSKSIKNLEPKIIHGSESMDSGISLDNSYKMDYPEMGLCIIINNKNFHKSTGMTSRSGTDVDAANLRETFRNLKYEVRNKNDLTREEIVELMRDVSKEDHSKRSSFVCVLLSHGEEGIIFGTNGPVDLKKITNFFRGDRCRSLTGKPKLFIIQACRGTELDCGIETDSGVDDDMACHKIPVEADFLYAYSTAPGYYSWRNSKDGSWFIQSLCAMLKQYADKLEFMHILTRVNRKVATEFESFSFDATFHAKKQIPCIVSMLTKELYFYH

[3] = biological target: T3, Sentrin-specific protease 7 (Homo sapiens, UniProt Q9BQF6); type: functional;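 further: Luminescence-based dose-response confirmation of ultra-high-throughput screening hits, measuring inhibition of SENP7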
T3 sequence (Q9BQF6 whole entry): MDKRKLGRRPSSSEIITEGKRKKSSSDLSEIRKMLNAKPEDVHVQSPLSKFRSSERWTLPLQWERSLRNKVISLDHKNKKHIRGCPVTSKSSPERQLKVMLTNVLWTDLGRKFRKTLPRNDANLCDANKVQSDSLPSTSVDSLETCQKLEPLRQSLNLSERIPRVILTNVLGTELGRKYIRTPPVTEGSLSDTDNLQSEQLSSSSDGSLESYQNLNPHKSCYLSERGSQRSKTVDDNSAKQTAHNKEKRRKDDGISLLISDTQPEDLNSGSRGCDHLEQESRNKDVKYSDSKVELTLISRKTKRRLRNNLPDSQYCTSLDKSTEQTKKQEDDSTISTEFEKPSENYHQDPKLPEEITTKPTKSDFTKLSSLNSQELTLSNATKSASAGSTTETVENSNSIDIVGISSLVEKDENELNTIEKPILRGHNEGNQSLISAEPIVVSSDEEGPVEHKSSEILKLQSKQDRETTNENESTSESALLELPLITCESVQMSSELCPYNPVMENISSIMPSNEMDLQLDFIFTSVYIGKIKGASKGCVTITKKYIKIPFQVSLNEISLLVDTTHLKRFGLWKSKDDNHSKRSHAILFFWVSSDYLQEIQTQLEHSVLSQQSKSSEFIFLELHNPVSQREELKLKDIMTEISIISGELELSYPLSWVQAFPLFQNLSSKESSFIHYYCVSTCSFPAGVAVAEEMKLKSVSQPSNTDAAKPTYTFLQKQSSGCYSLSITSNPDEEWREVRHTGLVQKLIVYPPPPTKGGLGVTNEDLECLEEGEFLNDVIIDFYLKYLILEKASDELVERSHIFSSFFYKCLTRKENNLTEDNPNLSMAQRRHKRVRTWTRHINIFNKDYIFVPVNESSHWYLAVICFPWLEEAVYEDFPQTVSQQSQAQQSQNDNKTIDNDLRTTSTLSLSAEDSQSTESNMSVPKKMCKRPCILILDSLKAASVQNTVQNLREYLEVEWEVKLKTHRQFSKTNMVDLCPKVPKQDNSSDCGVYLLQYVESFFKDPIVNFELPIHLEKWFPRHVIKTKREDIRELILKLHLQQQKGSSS

[4] = biological target: T4, Sentrin-specific protease 6 (Homo sapiens, UniProt Q9GZR1); type: functional;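 further: Luminescence-based dose-response confirmatory assay of SENP6 inhibition, following up an ultra-high-throughput screen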
T4 sequence (Q9GZR1 whole entry): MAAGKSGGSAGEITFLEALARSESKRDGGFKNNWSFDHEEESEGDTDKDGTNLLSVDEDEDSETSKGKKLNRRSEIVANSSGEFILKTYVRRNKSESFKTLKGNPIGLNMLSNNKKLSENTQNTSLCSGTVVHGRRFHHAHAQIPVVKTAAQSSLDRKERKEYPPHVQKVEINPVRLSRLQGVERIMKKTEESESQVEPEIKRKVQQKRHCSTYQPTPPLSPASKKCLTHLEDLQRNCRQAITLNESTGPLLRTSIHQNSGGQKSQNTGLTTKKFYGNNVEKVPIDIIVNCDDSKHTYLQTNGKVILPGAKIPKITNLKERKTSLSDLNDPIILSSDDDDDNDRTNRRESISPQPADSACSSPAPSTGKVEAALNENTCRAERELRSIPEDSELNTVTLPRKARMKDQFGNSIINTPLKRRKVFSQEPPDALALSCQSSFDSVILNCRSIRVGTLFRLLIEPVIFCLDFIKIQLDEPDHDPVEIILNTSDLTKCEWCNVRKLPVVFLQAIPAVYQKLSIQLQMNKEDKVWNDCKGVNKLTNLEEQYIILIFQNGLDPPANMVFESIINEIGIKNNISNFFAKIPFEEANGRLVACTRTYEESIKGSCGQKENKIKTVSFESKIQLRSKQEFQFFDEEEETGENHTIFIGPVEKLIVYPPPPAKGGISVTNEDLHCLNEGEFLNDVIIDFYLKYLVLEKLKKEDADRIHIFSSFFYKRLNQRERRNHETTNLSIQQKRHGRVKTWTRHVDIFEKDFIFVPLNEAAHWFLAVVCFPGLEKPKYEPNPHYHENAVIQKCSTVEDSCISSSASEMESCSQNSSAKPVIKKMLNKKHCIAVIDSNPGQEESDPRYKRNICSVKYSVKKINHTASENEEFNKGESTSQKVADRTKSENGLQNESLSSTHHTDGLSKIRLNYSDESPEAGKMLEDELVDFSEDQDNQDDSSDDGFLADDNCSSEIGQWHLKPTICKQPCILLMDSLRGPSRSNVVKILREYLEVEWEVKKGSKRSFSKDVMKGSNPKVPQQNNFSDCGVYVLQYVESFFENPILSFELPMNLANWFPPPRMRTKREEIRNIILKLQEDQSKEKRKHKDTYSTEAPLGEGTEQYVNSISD

[5] = biological target: T5, Sentrin-specific protease 8 (Homo sapiens, UniProt Q96LD8); type: functional
T5 sequence (Q96LD8 whole entry): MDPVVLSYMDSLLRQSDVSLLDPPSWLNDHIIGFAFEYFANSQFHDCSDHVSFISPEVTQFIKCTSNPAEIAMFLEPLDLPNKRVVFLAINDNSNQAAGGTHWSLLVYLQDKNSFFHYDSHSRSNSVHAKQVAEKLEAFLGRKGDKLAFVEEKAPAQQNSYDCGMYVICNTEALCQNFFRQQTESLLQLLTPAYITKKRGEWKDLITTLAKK

[6] = biological target: Ras and Rab interactor 1/Tyrosine-protein kinase ABL1 (Homo sapiens, UniProt P00519+Q13671); type: functional;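 further: biochemical TR-FRET dose-response test measuring inhibition of binding between Rin1 and Abl proteins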
Chain of Ras and Rab interactor 1/Tyrosine-protein kinase ABL1 (P00519 whole entry): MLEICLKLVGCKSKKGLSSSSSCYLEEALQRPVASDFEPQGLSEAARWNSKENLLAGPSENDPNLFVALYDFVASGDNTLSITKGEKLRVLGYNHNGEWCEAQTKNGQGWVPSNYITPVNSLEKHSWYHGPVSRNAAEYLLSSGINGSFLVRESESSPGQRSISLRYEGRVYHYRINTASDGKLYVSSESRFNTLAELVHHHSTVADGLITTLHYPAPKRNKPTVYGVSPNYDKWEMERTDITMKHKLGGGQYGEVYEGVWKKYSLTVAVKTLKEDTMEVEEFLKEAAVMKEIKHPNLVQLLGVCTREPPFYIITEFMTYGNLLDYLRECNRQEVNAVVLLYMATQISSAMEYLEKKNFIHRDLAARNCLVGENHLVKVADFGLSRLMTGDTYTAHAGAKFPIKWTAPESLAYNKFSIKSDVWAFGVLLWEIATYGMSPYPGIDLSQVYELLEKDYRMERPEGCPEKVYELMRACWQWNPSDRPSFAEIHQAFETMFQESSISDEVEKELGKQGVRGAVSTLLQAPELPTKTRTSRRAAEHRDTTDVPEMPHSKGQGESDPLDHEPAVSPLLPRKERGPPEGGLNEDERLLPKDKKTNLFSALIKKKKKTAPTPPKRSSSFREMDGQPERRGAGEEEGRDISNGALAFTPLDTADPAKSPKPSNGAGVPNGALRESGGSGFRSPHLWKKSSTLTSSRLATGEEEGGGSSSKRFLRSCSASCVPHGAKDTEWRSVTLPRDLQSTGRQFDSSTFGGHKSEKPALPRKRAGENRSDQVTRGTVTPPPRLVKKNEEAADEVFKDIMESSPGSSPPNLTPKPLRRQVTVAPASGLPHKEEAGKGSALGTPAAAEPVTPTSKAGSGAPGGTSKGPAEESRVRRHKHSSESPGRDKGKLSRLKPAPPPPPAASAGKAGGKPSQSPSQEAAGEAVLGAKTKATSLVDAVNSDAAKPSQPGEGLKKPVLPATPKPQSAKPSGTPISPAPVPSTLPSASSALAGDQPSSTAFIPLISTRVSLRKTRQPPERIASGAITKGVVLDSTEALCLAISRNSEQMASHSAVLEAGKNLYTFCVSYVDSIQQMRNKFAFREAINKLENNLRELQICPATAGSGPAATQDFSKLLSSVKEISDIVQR
Chain of Ras and Rab interactor 1/Tyrosine-protein kinase ABL1 (Q13671 whole entry): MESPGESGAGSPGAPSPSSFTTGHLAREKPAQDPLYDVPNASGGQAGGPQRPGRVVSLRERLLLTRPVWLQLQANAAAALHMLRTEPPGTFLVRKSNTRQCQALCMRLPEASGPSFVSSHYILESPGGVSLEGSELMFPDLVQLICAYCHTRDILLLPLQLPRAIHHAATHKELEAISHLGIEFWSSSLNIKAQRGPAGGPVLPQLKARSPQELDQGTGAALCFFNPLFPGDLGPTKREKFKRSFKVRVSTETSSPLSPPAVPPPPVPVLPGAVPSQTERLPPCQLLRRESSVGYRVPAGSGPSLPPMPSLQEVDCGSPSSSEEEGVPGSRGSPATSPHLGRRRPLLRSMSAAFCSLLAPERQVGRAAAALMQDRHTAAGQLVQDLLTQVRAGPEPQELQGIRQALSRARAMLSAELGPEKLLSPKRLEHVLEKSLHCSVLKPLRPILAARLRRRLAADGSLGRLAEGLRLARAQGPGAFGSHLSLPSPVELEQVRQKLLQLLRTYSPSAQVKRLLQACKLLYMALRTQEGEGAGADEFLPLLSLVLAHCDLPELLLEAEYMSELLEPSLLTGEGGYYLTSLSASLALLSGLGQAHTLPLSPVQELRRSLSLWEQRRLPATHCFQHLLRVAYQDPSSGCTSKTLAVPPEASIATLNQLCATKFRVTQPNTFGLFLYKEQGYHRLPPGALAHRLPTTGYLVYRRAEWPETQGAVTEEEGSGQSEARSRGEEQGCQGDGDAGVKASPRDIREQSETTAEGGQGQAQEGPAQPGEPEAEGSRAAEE

Estrogen receptor = biological target: T6, Estrogen receptor (Homo sapiens, UniProt P03372);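 further: potency for inhibiting coactivator peptide recruitment to the receptor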
T6 sequence (P03372 whole entry): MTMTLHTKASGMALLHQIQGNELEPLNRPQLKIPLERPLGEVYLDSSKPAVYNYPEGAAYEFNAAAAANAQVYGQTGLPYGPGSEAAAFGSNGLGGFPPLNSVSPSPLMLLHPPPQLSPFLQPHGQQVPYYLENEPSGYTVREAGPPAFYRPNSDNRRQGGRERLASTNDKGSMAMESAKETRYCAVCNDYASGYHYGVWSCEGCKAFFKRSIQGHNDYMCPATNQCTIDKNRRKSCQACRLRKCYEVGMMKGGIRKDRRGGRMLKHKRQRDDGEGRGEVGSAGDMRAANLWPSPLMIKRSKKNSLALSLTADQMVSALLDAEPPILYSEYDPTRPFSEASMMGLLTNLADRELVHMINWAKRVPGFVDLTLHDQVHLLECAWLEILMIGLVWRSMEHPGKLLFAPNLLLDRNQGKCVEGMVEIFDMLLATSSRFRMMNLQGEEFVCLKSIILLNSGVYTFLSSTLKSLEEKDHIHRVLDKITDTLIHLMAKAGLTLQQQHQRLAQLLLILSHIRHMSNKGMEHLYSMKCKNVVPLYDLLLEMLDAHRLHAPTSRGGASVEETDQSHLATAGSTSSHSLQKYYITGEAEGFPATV

Vero [7] = assay: Vero cell cytotoxicity, cytotoxicity control for flavivirus capping enzyme inhibitors (AID 588742); type: functional; settings: Chlorocebus sabaeus
[8] = biological target: Heat shock protein HSP 90-alpha (Homo sapiens, UniProt P07900); type: functional, organism-based
[9] = biological target: T5, Sentrin-specific protease 8; type: functional; remark: listed apart in the source
[10] = biological target: T5, Sentrin-specific protease 8; type: functional; remark: listed apart in the source
[11] = THP-1 cell cytotoxicity, dose response, cytotoxicity control for non-replicating M. tuberculosis project (AID 489025); type: functional
[12] = HepG2 cell cytotoxicity, dose response, cytotoxicity control for non-replicating M. tuberculosis project (AID 489018); type: functional; settings: Mycobacterium tuberculosis
Genome polyprotein = Genome polyprotein (dengue virus type 2, UniProt P29990); assay: Dengue-2 NS5 methyltransferase inhibitors, primary screen, biochemical, confirmation dose response (AID 588689); type: functional
Chain of Genome polyprotein (P29990 2492-3391 limits assumed): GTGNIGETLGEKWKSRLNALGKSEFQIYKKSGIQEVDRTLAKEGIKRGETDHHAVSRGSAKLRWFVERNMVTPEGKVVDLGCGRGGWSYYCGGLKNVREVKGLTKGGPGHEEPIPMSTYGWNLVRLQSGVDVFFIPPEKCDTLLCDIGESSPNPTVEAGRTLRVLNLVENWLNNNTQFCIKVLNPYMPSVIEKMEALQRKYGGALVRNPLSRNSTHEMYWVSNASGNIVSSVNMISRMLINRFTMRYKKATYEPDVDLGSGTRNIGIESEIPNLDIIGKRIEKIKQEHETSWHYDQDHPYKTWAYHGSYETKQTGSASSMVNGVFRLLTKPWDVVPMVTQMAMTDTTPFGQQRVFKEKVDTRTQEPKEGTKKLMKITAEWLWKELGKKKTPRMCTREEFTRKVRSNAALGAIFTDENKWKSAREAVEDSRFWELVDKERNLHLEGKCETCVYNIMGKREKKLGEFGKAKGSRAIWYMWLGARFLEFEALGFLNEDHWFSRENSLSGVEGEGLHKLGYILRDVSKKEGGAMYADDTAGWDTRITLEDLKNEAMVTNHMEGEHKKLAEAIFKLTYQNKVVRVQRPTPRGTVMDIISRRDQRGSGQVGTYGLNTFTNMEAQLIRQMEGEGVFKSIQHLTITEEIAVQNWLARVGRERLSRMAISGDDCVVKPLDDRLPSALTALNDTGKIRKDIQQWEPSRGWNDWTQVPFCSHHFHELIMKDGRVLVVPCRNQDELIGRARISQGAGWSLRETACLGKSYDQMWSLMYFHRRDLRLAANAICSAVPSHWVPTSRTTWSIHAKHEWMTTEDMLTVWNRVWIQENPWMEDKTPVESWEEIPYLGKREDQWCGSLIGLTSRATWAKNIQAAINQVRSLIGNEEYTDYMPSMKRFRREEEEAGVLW

[13] = Shn3 3'UTR reporter inhibitors, dose response, cell-based, Clone20 osteoblasts, firefly luciferase, cherry-picked (AID 624132); type: functional;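 further: firefly luciferase luminescence from reporter carrying the Shn3 3'UTR in osteoblasts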
[14] = HepG2 cell cytotoxicity, dose response, cytotoxicity control for Shn3 inhibitor project, CellTiter-Glo, cherry-picked (AID 624134); type: functional, cell-based
[15] = control 3'UTR Renilla luciferase suppression, dose response, counter-screen for Shn3 inhibitor project, cell-based, Clone20-Shn3RL, cherry-picked (AID 624133); type: functional
Paired box protein Pax-8 = Paired box protein Pax-8 (Homo sapiens, UniProt Q06710); assay: inhibitors of PAX8-driven TPO luciferase reporter, dose response, RMG-I cells, cherry-pick (AID 687027); type: functional, cell-based;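 further: luciferase reporter driven by Pax8 target thyroperoxidase promoter measured by SteadyGlo luminescence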
Chain of Paired box protein Pax-8 (Q06710 whole entry): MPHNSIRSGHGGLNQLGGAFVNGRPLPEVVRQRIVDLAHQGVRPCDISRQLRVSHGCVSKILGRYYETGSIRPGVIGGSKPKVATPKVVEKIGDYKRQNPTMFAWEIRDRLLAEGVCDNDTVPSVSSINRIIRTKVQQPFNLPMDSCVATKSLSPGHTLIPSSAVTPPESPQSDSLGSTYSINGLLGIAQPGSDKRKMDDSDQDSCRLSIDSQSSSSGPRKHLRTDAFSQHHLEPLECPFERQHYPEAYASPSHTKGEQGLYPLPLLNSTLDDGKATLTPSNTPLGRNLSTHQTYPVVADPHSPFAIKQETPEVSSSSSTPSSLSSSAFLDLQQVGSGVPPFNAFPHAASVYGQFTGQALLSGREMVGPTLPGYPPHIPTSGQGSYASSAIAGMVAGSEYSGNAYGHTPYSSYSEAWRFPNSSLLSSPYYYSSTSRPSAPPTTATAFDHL

Nonstructural protein 1 = Nonstructural protein 1 (Influenza A virus, UniProt Q194T2); type: functional, Influenza A virus (A/California/07/2009(H1N1))
Chain of Nonstructural protein 1 (Q194T2 whole entry): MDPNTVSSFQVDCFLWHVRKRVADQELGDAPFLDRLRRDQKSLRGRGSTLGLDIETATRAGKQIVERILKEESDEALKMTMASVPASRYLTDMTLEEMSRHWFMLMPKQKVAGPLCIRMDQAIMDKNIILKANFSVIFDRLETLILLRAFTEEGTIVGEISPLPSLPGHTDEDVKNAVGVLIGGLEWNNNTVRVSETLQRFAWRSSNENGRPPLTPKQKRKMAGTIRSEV

Vero [16] = assay: cells; type: functional; settings: Chlorocebus sabaeus
Protein Tat = biological target: T7, Protein Tat (Human immunodeficiency virus type 1 group M subtype B (isolate HXB2)(HIV-1), UniProt P04608); type: functional;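 further: tat binding to TAR RNA read out by fluorescence polarization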
T7 sequence (P04608 whole entry): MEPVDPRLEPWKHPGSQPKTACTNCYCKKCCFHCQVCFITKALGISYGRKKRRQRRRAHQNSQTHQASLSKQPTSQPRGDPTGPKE

[17] = THP-1 cell cytotoxicity, dose response, cytotoxicity control for Vif-APOBEC3G degradation inhibitor project, THP-1 cells (AID 1117359); type: functional; settings: Human immunodeficiency virus 1, THP-1

Chain of Mu-type opioid receptor (P35372 whole entry): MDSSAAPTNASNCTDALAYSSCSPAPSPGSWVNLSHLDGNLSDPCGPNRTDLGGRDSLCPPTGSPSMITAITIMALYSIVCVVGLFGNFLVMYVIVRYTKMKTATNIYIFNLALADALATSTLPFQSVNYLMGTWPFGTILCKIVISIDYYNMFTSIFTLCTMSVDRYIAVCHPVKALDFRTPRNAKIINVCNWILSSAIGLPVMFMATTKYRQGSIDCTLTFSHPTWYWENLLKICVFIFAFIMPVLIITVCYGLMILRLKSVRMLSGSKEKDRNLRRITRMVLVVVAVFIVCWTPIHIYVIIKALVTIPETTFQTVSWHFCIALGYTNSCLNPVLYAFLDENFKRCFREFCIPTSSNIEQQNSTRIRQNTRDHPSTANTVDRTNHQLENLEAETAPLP

C=CCN1CCc2nc(N)sc2CC1 [TALIPEXOLE HYDROCHLORIDE]
EC50 (Mu-type opioid receptor): 92.6 µM (inactive)
EC50 [1]: 0.0137 µM (active)
AC50 [2]: 6.04 µM (active)

COc1ccc(C(=O)COC(=O)c2n[nH]c3ccccc23)c(OC)c1
IC50 (Caspase-3): 33 µM (active)
IC50 [3]: 8.72 µM (active)
IC50 [4]: 29.9 µM (active)
IC50 [5]: 40.3 µM (active)

COc1cc2c(C(=O)N3CCN(c4cccc(Cl)c4)CC3)cn(C)c(=O)c2cc1OC
IC50 [6]: 20.5 µM (inactive)

Cc1cc(C)c2nc(-c3ccccn3)cc(C(=O)NCc3ccco3)c2c1
IC50 (Estrogen receptor): > 50 µM (not active)
CC50 (Vero [7]): > 40 µM (active)

Cc1cc(C)cc(/N=C/c2ccc([N+](=O)[O-])s2)c1
AC50 [8]: 4.15 µM (active)
IC50 [9]: 2.56 µM (active)
IC50 [10]: 14.1 µM (active)

Clc1ncc(CN2CCN(c3ccccc3)CC2)s1
EC50 (Mu-type opioid receptor): 92.5 µM (inactive)
EC50 [1]: 0.815 µM (active)

CCSc1nsc(NC(=O)Nc2ccc(F)cc2F)n1
CC50 [11]: 28.3 µM (active)
CC50 [12]: > 20 µM (active)
IC50 (Caspase-3): 39.5 µM (active)
IC50 [3]: 13.7 µM (active)
IC50 [4]: > 100 µM (inactive)
IC50 [5]: > 100 µM (inactive)

COc1ccc(C(N)=NOC(=O)Cc2cccs2)cc1
IC50 (Caspase-3): 32 µM (active)
IC50 [3]: 11.3 µM (active)
IC50 [4]: 37.2 µM (active)
IC50 [5]: 6.43 µM (active)

Cc1nn(-c2cccc(Cl)c2)c2nc(-c3ccco3)cc(C(=O)O)c12
CC50 (Vero [7]): > 40 µM (active)
IC50 (Genome polyprotein): > 100 µM (active)

COc1cccc(C(c2nnnn2-c2ccc3c(c2)OCCO3)N2CCC(n3c(O)nc4ccccc43)CC2)c1OC (centres undefined)
IC50 [6]: > 73.4 µM (inactive)
AC50 [13]: 3.74 µM (active)
AC50 [14]: > 70 µM (inactive)
AC50 [15]: 5.67 µM (active)
AC50 (Paired box protein Pax-8): 1.52 µM (active)

O=[N+]([O-])c1cc2no[n+]([O-])c2cc1N1CCCCC1
IC50 (Nonstructural protein 1): 31.7 µM (active)
AC50 [8]: 1.62 µM (active)
CC50 (Vero [7]): 27.6 µM (active)
CC50 (Vero [16]): 24.7 µM (active)
IC50 (Genome polyprotein): 6.38 µM (active)
IC50 (Protein Tat): > 100 µM (active)
CC50 [17]: 36.9 µM (active)
